Assay results as given in ChEMBL document CHEMBL1201862, “PubChem BioAssay data set” (2004).
Several values for one entry are separate records, joined by “and”; a condition that tells them apart may be missing. Identical values can stand only once.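 Briefly, cells in 96-well plates were exposed to five compound concentrations for 48 h, and endpoints were estimated by linear interpolation. At the GI50, growth is halved.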 Activity calls are given as the source filed them. Cut-off read from the data, not from the text of the source: active = GI50 up to about 1.1 µM and inactive = higher.

How the values were obtained:
Experiment in all cases: DTP human tumour cell line panel, 48 h
786-0 = test system: 786-0
A498 = test system: A498
A549 = test system: A549
ACHN = test system: ACHN
DU-145 = test system: DU-145
EKVX = test system: EKVX
HCT-116 = test system: HCT-116
HCT-15 = test system: HCT-15
HL-60 = test system: HL-60
HOP-62 = test system: HOP-62
HOP-92 = test system: HOP-92
HT-29 = test system: HT-29
IGROV-1 = test system: IGROV-1
K562 = test system: K562
KM12 = test system: KM12
LOX IMVI = test system: LOX IMVI
M14 = test system: M14
MCF7 = test system: MCF7
MDA-MB-231 = test system: MDA-MB-231
MDA-MB-435 = test system: MDA-MB-435
MDA-N = test system: MDA-N
MOLT-4 = test system: MOLT-4
NCI-H226 = test system: NCI-H226
NCI-H460 = test system: NCI-H460
NCI-H522 = test system: NCI-H522
NCI/ADR-RES = test system: NCI/ADR-RES
OVCAR-3 = test system: OVCAR-3
OVCAR-5 = test system: OVCAR-5
OVCAR-8 = test system: OVCAR-8
PC-3 = test system: PC-3
RPMI-8226 = test system: RPMI-8226
SF-268 = test system: SF-268
SF-295 = test system: SF-295
SF-539 = test system: SF-539
SK-MEL-28 = test system: SK-MEL-28
SK-MEL-2 = test system: SK-MEL-2
SK-OV-3 = test system: SK-OV-3
SN12C = test system: SN12C
SNB-19 = test system: SNB-19
SNB-75 = test system: SNB-75
SR = test system: SR
SW-620 = test system: SW-620
T47D = test system: T47D
TK-10 = test system: TK-10
U-251 = test system: U-251
UACC-257 = test system: UACC-257
UACC-62 = test system: UACC-62
UO-31 = test system: UO-31
Hs-578T = test system: Hs-578T
CAKI-1 = test system: CAKI-1
CCRF-CEM = test system: CCRF-CEM
COLO 205 = test system: COLO 205
NCI-H23 = test system: NCI-H23
SK-MEL-5 = test system: SK-MEL-5

## CNc1cc([N+](=O)[O-])ccc1C(=O)N1CCC[C@H]1CO
786-0
  GI50: > 100 µM (inactive)
A498
  GI50: > 100 µM (inactive)
A549
  GI50: > 100 µM (inactive)
ACHN
  GI50: > 100 µM (inactive)
DU-145
  GI50: > 100 µM (inactive)
EKVX
  GI50: > 100 µM (inactive)
HCT-116
  GI50: > 100 µM (inactive)
HCT-15
  GI50: > 100 µM
HL-60
  GI50: > 100 µM (inactive)
HOP-62
  GI50: > 100 µM (inactive)
HOP-92
  GI50: > 100 µM (inactive)
HT-29
  GI50: > 100 µM (inactive)
IGROV-1
  GI50: > 100 µM (inactive)
K562
  GI50: > 100 µM (inactive)
KM12
  GI50: > 100 µM (inactive)
LOX IMVI
  GI50: > 100 µM (inactive)
M14
  GI50: > 100 µM (inactive)
MCF7
  GI50: > 100 µM (inactive)
MDA-MB-231
  GI50: > 100 µM (inactive)
MDA-MB-435
  GI50: > 100 µM (inactive)
MDA-N
  GI50: > 100 µM (inactive)
MOLT-4
  GI50: > 100 µM (inactive)
NCI-H226
  GI50: > 100 µM (inactive)
NCI-H460
  GI50: > 100 µM (inactive)
NCI-H522
  GI50: > 100 µM (inactive)
NCI/ADR-RES
  GI50: > 100 µM (inactive)
OVCAR-3
  GI50: > 100 µM (inactive)
OVCAR-5
  GI50: > 100 µM (inactive)
OVCAR-8
  GI50: > 100 µM (inactive)
PC-3
  GI50: > 100 µM (inactive)
RPMI-8226
  GI50: > 100 µM (inactive)
SF-268
  GI50: 8.83 µM (inactive)
SF-295
  GI50: > 100 µM (inactive)
SF-539
  GI50: > 100 µM (inactive)
SK-MEL-28
  GI50: > 100 µM (inactive)
SK-MEL-2
  GI50: > 100 µM (inactive)
SK-OV-3
  GI50: > 100 µM (inactive)
SN12C
  GI50: > 100 µM (inactive)
SNB-19
  GI50: > 100 µM (inactive)
SNB-75
  GI50: > 100 µM (inactive)
SR
  GI50: 44.3 µM (inactive)
SW-620
  GI50: > 100 µM (inactive)
T47D
  GI50: > 100 µM (inactive)
TK-10
  GI50: > 100 µM (inactive)
U-251
  GI50: > 100 µM (inactive)
UACC-257
  GI50: > 100 µM (inactive)
UACC-62
  GI50: > 100 µM (inactive)
UO-31
  GI50: > 100 µM (inactive)

## COC(=O)C1=COC(C)C2CN3CCc4c([nH]c5ccccc45)C3CC12 (stereo unspecified)
HOP-62
  GI50: > 100 µM (inactive) and 55.1 µM (inactive)
Hs-578T
  GI50: 49 µM (inactive) and 26 µM (inactive)
MDA-MB-435
  GI50: 52.1 µM (inactive)
OVCAR-5
  GI50: > 100 µM (inactive)
SF-268
  GI50: 54.1 µM (inactive)
SK-OV-3
  GI50: 58.7 µM (inactive)
SNB-19
  GI50: 84.5 µM (inactive)

## O=C1c2ccccc2C(=O)N1CCc1ncc[nH]1
786-0
  GI50: > 100 µM (inactive)
A549
  GI50: > 100 µM (inactive)
ACHN
  GI50: > 100 µM (inactive)
CAKI-1
  GI50: > 100 µM (inactive)
CCRF-CEM
  GI50: > 100 µM (inactive)
COLO 205
  GI50: > 100 µM (inactive)
DU-145
  GI50: > 100 µM (inactive)
EKVX
  GI50: > 100 µM (inactive)
HCT-116
  GI50: > 100 µM (inactive)
HCT-15
  GI50: > 100 µM
HOP-92
  GI50: > 100 µM (inactive)
HT-29
  GI50: > 100 µM (inactive)
Hs-578T
  GI50: > 100 µM (inactive)
IGROV-1
  GI50: > 100 µM (inactive)
K562
  GI50: > 100 µM (inactive)
KM12
  GI50: > 100 µM (inactive)
LOX IMVI
  GI50: > 100 µM (inactive)
M14
  GI50: > 100 µM (inactive)
MCF7
  GI50: > 100 µM (inactive)
MDA-MB-435
  GI50: > 100 µM (inactive)
MDA-N
  GI50: > 100 µM (inactive)
MOLT-4
  GI50: > 100 µM (inactive)
NCI-H23
  GI50: > 100 µM (inactive)
NCI-H460
  GI50: > 100 µM (inactive)
NCI-H522
  GI50: > 100 µM (inactive)
NCI/ADR-RES
  GI50: > 100 µM (inactive)
OVCAR-3
  GI50: > 100 µM (inactive)
OVCAR-5
  GI50: > 100 µM (inactive)
OVCAR-8
  GI50: > 100 µM (inactive)
PC-3
  GI50: > 100 µM (inactive)
RPMI-8226
  GI50: > 100 µM (inactive)
SF-268
  GI50: > 100 µM (inactive)
SF-295
  GI50: > 100 µM (inactive)
SF-539
  GI50: > 100 µM (inactive)
SK-MEL-28
  GI50: > 100 µM (inactive)
SK-MEL-2
  GI50: > 100 µM (inactive)
SK-MEL-5
  GI50: > 100 µM (inactive)
SN12C
  GI50: > 100 µM (inactive)
SNB-19
  GI50: > 100 µM (inactive)
SR
  GI50: > 100 µM (inactive)
SW-620
  GI50: > 100 µM (inactive)
T47D
  GI50: > 100 µM (inactive)
TK-10
  GI50: > 100 µM (inactive)
UACC-257
  GI50: > 100 µM (inactive)
UACC-62
  GI50: > 100 µM (inactive)
UO-31
  GI50: > 100 µM (inactive)
